According to PubChem BioAssay AID248 (DTP/NCI, 2004):
Toxic doses and inconclusive results are not listed.

Test system: L1210 leukemia ip in BDF1 mice, survival T/C
Test: NCI In Vivo Anticancer Drug Screen. Data for tumor model L1210 Leukemia (intraperitoneal) in B6D2F1 (BDF1) mice
Details: endpoint: mean survival time, higher = longer survival
How it was run: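 Ratio derived from survival: compound-dosed mice over vehicle-dosed mice, all bearing a transplantable tumor.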

[1] = dose: 100.0 mg/kg/injection, schedule: Q04DX003 (ip), vehicle: Klucel (hydroxypropylcellulose) (HPC)
[2] = dose: 200.0 mg/kg/injection, schedule: Q04DX003 (ip), vehicle: Klucel (hydroxypropylcellulose) (HPC)
[3] = dose: 400.0 mg/kg/injection, schedule: Q04DX003 (ip), vehicle: Klucel (hydroxypropylcellulose) (HPC)
[4] = dose: 100.0 mg/kg/injection, schedule: Q04DX003 (ip), vehicle: saline
[5] = dose: 200.0 mg/kg/injection, schedule: Q04DX003 (ip), vehicle: saline
[6] = dose: 400.0 mg/kg/injection, schedule: Q04DX003 (ip), vehicle: saline
[7] = dose: 100.0 mg/kg/injection, schedule: Q01DX001 (ip), vehicle: saline
[8] = dose: 100.0 mg/kg/injection, schedule: Q01DX009 (ip), vehicle: saline
[9] = dose: 200.0 mg/kg/injection, schedule: Q01DX001 (ip), vehicle: saline
[10] = dose: 200.0 mg/kg/injection, schedule: Q01DX009 (ip), vehicle: saline
[11] = dose: 400.0 mg/kg/injection, schedule: Q01DX001 (ip), vehicle: saline
[12] = dose: 100.0 mg/kg/injection, schedule: Q04DX002 (ip), vehicle: Klucel (hydroxypropylcellulose) (HPC)
[13] = dose: 200.0 mg/kg/injection, schedule: Q04DX002 (ip), vehicle: Klucel (hydroxypropylcellulose) (HPC)
[14] = dose: 400.0 mg/kg/injection, schedule: Q04DX002 (ip), vehicle: Klucel (hydroxypropylcellulose) (HPC)
[15] = dose: 50.0 mg/kg/injection, schedule: Q01DX001 (ip), vehicle: saline

With `CC(=O)C1=C(c2ccccc2)C(=O)C(C(C)=O)=C(c2ccccc2)C1=O` the T/C [1] was 100 % of control, the T/C [2] was 100 % of control and the T/C [3] was 96 % of control.

`Cc1ccc2ccccc2n1` was tested, and the T/C [4] was 91 % of control, the T/C [5] was 93 % of control and the T/C [6] was 98 % of control.

`OCC1OC(OCC2OC(OC3(CO)OC(CO)C(O)C3O)C(O)C(O)C2O)C(O)C(O)C1O` (stereo unspecified) was tested, and the T/C [4] was 101 % of control, the T/C [5] was 106 % of control and the T/C [6] was 104 % of control.

For `Cc1ccc(N2CCCC(=O)C(O)CCC2)cc1` (stereo unspecified), the T/C [7] was 98 % of control, the T/C [8] was 100 % of control and the T/C [9] was 90 % of control. The T/C [10] was 96 % of control, the T/C (dose: 300.0 mg/kg/injection, schedule: Q01DX009 (ip), vehicle: saline) was 116 % of control and the T/C [11] was 90 % of control.

`Cc1cccc2c1NC(C)C2C` (stereo unspecified) was tested, and the T/C [8] was 102 % of control, the T/C [4] was 96 % of control and the T/C [10] was 98 % of control. The T/C [5] was 93 % of control, the T/C (dose: 400.0 mg/kg/injection, schedule: Q01DX009 (ip), vehicle: saline) was 98 % of control and the T/C [6] was 93 % of control.

For `CCN(CC)C(=S)SS(C)(=O)=O`, the T/C [7] was 101 % of control, the T/C (dose: 100.0 mg/kg/injection, schedule: Q04DX003 (ip), vehicle: acetone) was 97 % of control and the T/C [9] was 97 % of control. For the same compound, the T/C (dose: 200.0 mg/kg/injection, schedule: Q04DX003 (ip), vehicle: acetone) was 103 % of control, the T/C [11] was 97 % of control and the T/C (dose: 400.0 mg/kg/injection, schedule: Q04DX003 (ip), vehicle: acetone) was 101 % of control.

In the case of `CCOC(=O)CN1C(C)C1C(C)C` (stereo unspecified), the T/C [1] is reported as 114 % of control, the T/C [2] is reported as 100 % of control and the T/C [3] is reported as 104 % of control.

For `CCCCCCCCCCCCCOc1ccc(S(=O)(=O)/N=C(\N)NC(N)=NCCCCCCCCCCCC)cc1`, the T/C [12] was 93 % of control, the T/C [13] was 93 % of control and the T/C [14] was 86 % of control.

For `CCSC(SCC)C(OC(C)=O)C(OC(C)=O)C(OC(C)=O)C(COC(c1ccccc1)(c1ccccc1)c1ccccc1)OC(C)=O` (stereo unspecified), the T/C (dose: 100.0 mg/kg/injection, schedule: Q04DX002 (ip), vehicle: saline with Tween-80) was 101 % of control and the T/C (dose: 200.0 mg/kg/injection, schedule: Q04DX002 (ip), vehicle: saline with Tween-80) was 89 % of control.

With `Cc1c(Cl)cccc1NC(=O)C1CC(Br)C(Br)CC1C(=O)O` (stereo unspecified) the T/C [12] was 95 % of control, the T/C [13] was 103 % of control and the T/C [14] was 95 % of control.

With `O=C1c2ccccc2C(=O)c2[nH]c(-c3ccccc3)cc21` the T/C (dose: 100.0 mg/kg/injection, schedule: Q01DX001 (ip), vehicle: saline with Tween-80) was 94 % of control, the T/C (dose: 200.0 mg/kg/injection, schedule: Q01DX001 (ip), vehicle: saline with Tween-80) was 94 % of control and the T/C (dose: 400.0 mg/kg/injection, schedule: Q01DX001 (ip), vehicle: saline with Tween-80) was 94 % of control.

`Cc1ccc(CC(=O)c2c[nH]c3ccccc23)c(Cl)c1C` was tested, and the T/C [15] was 96 % of control, the T/C [7] was 98 % of control and the T/C [9] was 93 % of control. The T/C [11] was 98 % of control.

With `CC(C)(C)NC(=O)/C=C\C(=O)O` the T/C (dose: 100.0 mg/kg/injection, schedule: Q01DX009 (ip), vehicle: gum acacia) was 98 % of control, the T/C [1] was 103 % of control and the T/C (dose: 200.0 mg/kg/injection, schedule: Q01DX009 (ip), vehicle: gum acacia) was 95 % of control. The T/C [2] was 105 % of control, the T/C (dose: 400.0 mg/kg/injection, schedule: Q01DX009 (ip), vehicle: gum acacia) was 90 % of control and the T/C [3] was 92 % of control.

`Cc1cc(CC(O)(C(F)(F)Cl)C(F)(F)Cl)cc(C)n1` was tested, and the T/C (dose: 100.0 mg/kg/injection, schedule: Q01DX009 (ip), vehicle: saline with Tween-80) was 97 % of control, the T/C (dose: 200.0 mg/kg/injection, schedule: Q01DX009 (ip), vehicle: saline with Tween-80) was 94 % of control and the T/C (dose: 400.0 mg/kg/injection, schedule: Q01DX009 (ip), vehicle: saline with Tween-80) was 95 % of control.

With `CC1(C)OC2COC(c3[nH]nc4c(=O)[nH]c(=O)[nH]c34)C2O1` (stereo unspecified) the T/C (dose: 25.0 mg/kg/injection, schedule: Q01DX009 (ip), vehicle: saline) was 96 % of control, the T/C (dose: 100.0 mg/kg/injection, schedule: Q01DX005 (ip), vehicle: saline) was 101 % of control and the T/C [8] was 188 % of control.

For `CCN(CC)C(=S)SCn1nc(Cl)c2ccc([N+](=O)[O-])cc21`, the T/C [7] was 98 % of control, the T/C [9] was 98 % of control and the T/C [11] was 91 % of control.

`CCC(Cl)C(=O)Nc1ccccc1` (stereo unspecified) was tested, and the T/C [15] was 96 % of control, the T/C [7] was 108 % of control and the T/C [9] was 102 % of control. For the same compound, the T/C [11] was 104 % of control.

With `CC1([N+](=O)[O-])COC2(CCCCC2)OC1` the T/C (dose: 50.0 mg/kg/injection, schedule: Q01DX009 (ip), vehicle: Klucel (hydroxypropylcellulose) (HPC)) was 100 % of control, the T/C (dose: 100.0 mg/kg/injection, schedule: Q01DX009 (ip), vehicle: Klucel (hydroxypropylcellulose) (HPC)) was 96 % of control and the T/C (dose: 200.0 mg/kg/injection, schedule: Q01DX009 (ip), vehicle: Klucel (hydroxypropylcellulose) (HPC)) was 91 % of control.

`CCC(C)C(CN)(CCCN1CCCCC1)c1cccc2ccccc12` (stereo unspecified) was tested, and the T/C [4] was 97 % of control and the T/C [5] was 95 % of control.

With `CN(C)CC1(c2ccccc2)CC[N+](C)(C)C1` (stereo unspecified) the T/C (dose: 75.0 mg/kg/injection, schedule: Q01DX001 (ip), vehicle: saline) was 89 % of control and the T/C (dose: 150.0 mg/kg/injection, schedule: Q01DX001 (ip), vehicle: saline) was 93 % of control.

For `CC(=O)Nc1ccc(O)cc1[N+](=O)[O-]`, the T/C [1] was 107 % of control, the T/C [2] was 103 % of control and the T/C [3] was 103 % of control.

`CN(C)C(=O)Sc1ccc([N+](=O)[O-])cc1Cl` was tested, and the T/C [1] was 107 % of control, the T/C [2] was 101 % of control and the T/C [3] was 101 % of control.

For `Brc1cnc(Br)s1`, the T/C (dose: 44.0 mg/kg/injection, schedule: Q04DX002 (ip), vehicle: Klucel (hydroxypropylcellulose) (HPC)) was 97 % of control, the T/C (dose: 67.0 mg/kg/injection, schedule: Q04DX002 (ip), vehicle: Klucel (hydroxypropylcellulose) (HPC)) was 109 % of control and the T/C [12] was 116 % of control. For the same compound, the T/C (dose: 150.0 mg/kg/injection, schedule: Q04DX002 (ip), vehicle: Klucel (hydroxypropylcellulose) (HPC)) was 113 % of control.

For `Clc1nc2ccccc2s1`, the T/C (dose: 100.0 mg/kg/injection, schedule: Q01DX009 (ip), vehicle: alcohol) was 88 % of control and the T/C (dose: 200.0 mg/kg/injection, schedule: Q01DX009 (ip), vehicle: alcohol) was 89 % of control.

`CNc1ccccc1CO` was tested, and the T/C (dose: 100.0 mg/kg/injection, schedule: Q04DX003 (ip), vehicle: other) was 95 % of control, the T/C (dose: 200.0 mg/kg/injection, schedule: Q04DX003 (ip), vehicle: other) was 104 % of control and the T/C (dose: 400.0 mg/kg/injection, schedule: Q04DX003 (ip), vehicle: other) was 107 % of control.
